In patent US4649150A, “Antiulcerogenic amidine derivatives of 2-substituted 4-phenylimidazole” (Istituto de Angeli, S.p.A., priority 1983, dated 1987) one finds EC50 and ED50 data, which are given here for 6 molecules.

The target of one experiment is T1, histamine H2 -receptors (Cavia porcellus, UniProt P47747).
T1 construct: isolated guinea pig atria suspended in an organ bath; from tissue; host or cells: isolated guinea pig atria
The experiment in a line: In vitro inhibitory activity in histamine-induced tachycardia (guinea pig atria); inhibition of the histamine-evoked positive chronotropic effect. Conditions: isolated guinea pig atria, Krebs-Henseleit pH 7.4, 32° C., histamine 10^-6 g.ml^-1, 30 minutes; read-out: EC50 (average effective concentration of the H2-antagonists, inhibition of histamine-induced tachycardia). On the procedure: The myocardial preparation, loaded with 1 g isometric tension, was allowed to stabilize for 60 minutes, and myocardial contractions were recorded through an isometric lever connected to a strain-gauge coupler, and the instantaneous rate was monitored with a cardiotachometer and a heat-writing pen recorder. After two control responses to histamine (10^-6 g.ml^-1) the test compounds were added to the bath at the desired final concentration and left for 30 minutes before the atria were again challenged with histamine. The chronotropic response obtained in the presence of the antagonist was then compared to the control response to histamine, and the percent reduction of the histamine H2 -evoked response was calculated. […] 3, Smooth muscle, Ed. Daniel E. E. Paton, M., Plenum Press. New York (1975); Ash and Schild, Br. J. Pharmacol. Chemother. 27, 427-439, 1966.

For experiment [1], the system named is histamine-induced gastric secretion of acid. Description: In vivo antisecretory activity in histamine-induced gastric secretion (stomach perfused rat). Conditions: iv, read-out: ED50 (histamine-induced gastric secretion). The text has this: The ability of the test compounds to inhibit histamine-induced gastric secretion of acid was investigated after intravenous or intraduodenal administration in stomach perfused rats, according to Gosh and Schild [Br. J. Pharmacol. Chemother. 13, 54 (1958)]. The preparation of the animals in general anesthesia (urethane 1 g.kg^-1 i.p.) and constant temperature was achieved by inserting and tying in place polyethyl tubes (PE 50) in the esophagus and in the pyloric-antral region. After the stomach was washed to remove residuals of food, continuous perfusion of the stomach was started with saline, 0.5 ml.min^-1 (37° C.), primed by a Jobling peristaltic pump. After 30 minutes of perfusion adaptation, samples of the stomach perfusate were collected at 30 min. intervals and titrated for acid content, expressed as μEq of 1N NaOH. As control acid output became constant, intravenous perfusion of histamine (1 mg.kg^-1hr^-1) was started and maintained throughout the experimental period. After the acid secretion had reached the steadily higher level, increasing doses of the test compound were injected intravenously in order to obtain dose-response functions. The ED50 was then calculated by standard procedure.

Where [2] appears, read: stomach perfused rat, urethane anesthesia, histamine 1 mg.kg^-1hr^-1 i.v., values expressed taking the compound as a base.

Read-outs that look alike come from different tables or passages of the source.

T1 sequence (P47747 whole entry): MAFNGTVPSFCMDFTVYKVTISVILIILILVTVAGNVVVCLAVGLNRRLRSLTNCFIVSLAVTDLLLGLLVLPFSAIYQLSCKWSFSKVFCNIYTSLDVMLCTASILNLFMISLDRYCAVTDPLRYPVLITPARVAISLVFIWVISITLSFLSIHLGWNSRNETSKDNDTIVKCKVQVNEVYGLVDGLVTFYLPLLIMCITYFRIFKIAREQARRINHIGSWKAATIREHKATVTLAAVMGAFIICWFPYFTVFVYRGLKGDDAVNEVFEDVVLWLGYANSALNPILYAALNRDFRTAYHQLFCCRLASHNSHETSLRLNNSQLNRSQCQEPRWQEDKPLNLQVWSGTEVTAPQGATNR

By ED50 is commonly meant the midpoint of the dose-response relation. In the case of `CCNC=Nc1ccc(-c2c[nH]c(C)n2)cc1` [16 (a), N-Ethyl-N'-[4-(2-methyl-imidazol-4-yl)phenyl]-formamidine], the EC50 at histamine H2 -receptors amounted to 150 nM. The ED50 in experiment [1] (setting [2]) is 0.032 mg/kg.

On to `CC(C)NC=Nc1ccc(-c2c[nH]c(O)n2)cc1` [16 (aa), N-Isopropyl-N'-[4-(2-hydroxy-imidazol-4-yl)phenyl]-formamidine], for which, on histamine H2 -receptors, the EC50 was determined as 194 nM. For the same molecule, the ED50 in experiment [1] (setting [2]) was found to be 0.065 mg/kg.

As for `Cc1nc(-c2ccc(N=CNC(C)C)cc2)c[nH]1` [16 (b), N-Isopropyl-N'-[4-(2-methyl-imidazol-4-yl)phenyl]-formamidine], on histamine H2 -receptors, the EC50 came out at 180 nM. In experiment [1] (setting [2]), the ED50 worked out at 0.067 mg/kg.

As to `C=CCNC=Nc1ccc(-c2c[nH]c(C)n2)cc1` [16 (c), N-Allyl-N'-[4-(2-methyl-imidazol-4-yl)phenyl]-formamidine], the EC50 at histamine H2 -receptors was determined as 120 nM. For the same molecule, in experiment [1] (setting [2]), the ED50 is 0.025 mg/kg. Consider `CN/C(=N/CCSCc1nc[nH]c1C)NC#N` [Cimetidine, reference compound], for which the ED50 in experiment [1] (Rattus norvegicus) was found to be 0.56 mg/kg. On to `Cc1nc(-c2ccc(N=CNC(C)(C)C)cc2)c[nH]1` [Example 17, N-tert.Butyl-N'-[4-(2-methyl-imidazol-4-yl)phenyl]-formamidine], for which the EC50 on histamine H2 -receptors was determined as 400 nM. Moreover, in experiment [1] (setting [2]), the ED50 amounted to 0.08 mg/kg.
